In PubChem BioAssay (NCI):
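These data come from cells grown in 96-well plates and exposed to compound for 48 hours at five concentrations. The concentration for 50% growth inhibition is given as GI50. TGI: total growth inhibition.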

How the values were obtained:
Test in all cases: NCI anticancer screen, dose series, 48 h
TK-10 renal = test system: TK-10 renal
K-562 leukemia = test system: K-562 leukemia
IGROV1 ovarian = test system: IGROV1 ovarian
786-0 renal = test system: 786-0 renal
M14 melanoma = test system: M14 melanoma
SF-539 CNS = test system: SF-539 CNS
HOP-62 NSCLC = test system: HOP-62 NSCLC
MOLT-4 leukemia = test system: MOLT-4 leukemia
KM12 colon = test system: KM12 colon
SK-MEL-2 melanoma = test system: SK-MEL-2 melanoma

Row | Compound | TGI (TK-10 renal) [µM] | TGI (K-562 leukemia) [µM] | TGI (IGROV1 ovarian) [µM] | TGI (786-0 renal) [µM] | TGI (M14 melanoma) [µM] | TGI (SF-539 CNS) [µM] | TGI (HOP-62 NSCLC) [µM] | TGI (MOLT-4 leukemia) [µM] | TGI (KM12 colon) [µM] | TGI (SK-MEL-2 melanoma) [µM] | GI50 (TK-10 renal) [µM] | GI50 (SK-MEL-2 melanoma) [µM] | GI50 (IGROV1 ovarian) [µM] | GI50 (786-0 renal) [µM] | GI50 (M14 melanoma) [µM] | GI50 (SF-539 CNS) [µM] | GI50 (HOP-62 NSCLC) [µM] | GI50 (MOLT-4 leukemia) [µM] | GI50 (KM12 colon) [µM] | GI50 (K-562 leukemia) [µM]
1 | Cc1c(C(=O)/C=C/c2cccc3ccccc23)[n+](=O)c2ccccc2n1[O-] | 34.6 | 36.5 | 48.7 | 26.4 | 26.9 | 23.8 | 29.6 | 35.4 | 27.1 |  |  |  |  |  |  |  |  |  |  | 
2 | O=C1CCC(NC(=O)c2ccccc2)C(=O)N1 (stereo not given) | > 100 |  | > 100 | > 100 | > 100 | > 100 | > 100 | 16.9 | > 100 | > 100 |  |  |  |  |  |  |  |  |  | 
3 | CCOc1ccc2nc(NC(=O)/C(CC(=O)CC(C3=C(O)c4ccccc4CC3=O)c3ccccc3)=N\O)sc2c1 (stereo not given) |  | > 100 | > 100 | > 100 | > 100 | > 100 |  | > 100 | > 100 | > 100 |  |  |  |  |  |  |  |  |  | 
4 | CCCCCCCCCCCCCCC1OC(=O)c2ccccc21 (stereo not given) | > 100 | > 100 | > 100 | > 100 | > 100 | > 100 | > 100 | > 100 | > 100 |  |  |  |  |  |  |  |  |  |  | 
5 | CC(=O)c1ccc(N(/C=C/C(=O)C(F)(F)F)CC(=O)c2ccc(Cl)c(Cl)c2)cc1 | 32.8 |  | 28.4 | 32 | 26.7 | 36.6 | 28.7 | 27.2 | 27.1 | 30.4 | 15.8 | 15.3 | 13.9 | 17.8 | 13.3 | 20.5 | 15.3 | 4.18 | 12.8 | 
6 | O=c1[nH]c(=O)n(C2CC(O)C(CO)O2)cc1C#Cc1c(F)c(F)c(F)c(F)c1F (stereo not given) |  | > 100 |  | > 100 | > 100 | > 100 | > 100 | > 100 | > 100 | > 100 |  |  |  |  |  |  |  |  |  | 
7 | COC(=O)C(CC(=O)c1cc2c(cc1I)OCO2)Cc1cc(OC)c(OC)c(OC)c1I (stereo not given) | > 100 | > 100 | > 100 | > 100 |  | > 100 | > 100 | > 100 | > 100 | > 100 |  |  |  |  |  |  |  |  |  | 
8 | COc1cccc(-c2nn(-c3ccccc3)cc2-c2ccnc(NCCCNS(=O)(=O)c3cccc(F)c3)c2)c1 | > 100 | > 100 | > 100 | > 100 | > 100 |  | > 100 | 8 | > 100 | 8.32 | 5.32 | 2.59 | 4.96 | 4.01 | 3.3 |  | 10.4 | 2.64 | 3.38 | 3.31
9 | CC(=O)/C=C/c1cccc(N=S)c1 | > 89.9 | > 35.9 | > 48.4 | 13.1 | 22.4 | 20.8 | > 100 | > 75.2 | 20.2 |  |  |  |  |  |  |  |  |  |  | 
10 | O=C(Nc1ccccc1[N+](=O)[O-])c1ccccc1 | > 100 | > 100 | > 100 | > 100 | > 100 | > 100 | > 100 | > 100 | > 100 |  |  |  |  |  |  |  |  |  |  | 
11 | C[Si](C)(C)c1ccc(CC2(Cc3ccc([Si](C)(C)C)cc3)CCNC2)cc1 | 35.5 | 84.6 | 7.12 | 3.38 | 3.31 | 10.4 | 6 |  | 3.62 | 3.41 |  |  |  |  |  |  |  |  |  | 
12 | Cc1c(N2C(=O)/C(=C\c3ccccc3O)N=C2c2ccccc2)c(=O)n(-c2ccccc2)n1C | > 100 | > 100 | > 100 | > 100 | > 100 | > 100 | 46.1 |  | > 100 | > 100 | 33.4 | > 100 | 23.8 | 29.9 | > 100 | 33.5 | 19.4 |  | 21 | > 100
13 | Clc1cccc(NC=Nc2ccc(-c3nc4ccccc4s3)cc2)c1 | > 50 | 18.2 | 24.3 | 18.6 | 29.7 | 34.1 | > 50 |  | 38.3 | > 50 | 21 | 18 | 11.3 | 10.6 | 14.8 | 17.8 | 42.3 |  | 13.7 | 7.81
14 | CN(C)S(=O)(=O)Nc1ccccn1 | > 100 | > 100 | > 100 | > 100 | > 100 | > 100 | > 100 |  | > 100 | > 100 |  |  |  |  |  |  |  |  |  | 
